Assay results from US20080213785A1, “Method of predicting a benefit of antioxidant therapy for prevention or treatment of vasclar disease in hyperglycemic individuals” (priority 2000, published 2008).
Marks after values point to notes of the source that are not given here.

What was measured:
[1] = tested on: patients at high risk of cardiovascular events; test: HOPE study: CV outcomes with vitamin E or ramipril by haptoglobin phenotype; format: in vivo, human; conditions: for benefit of supplementation: unselected DM group
From the text: HOPE study and patient characteristics: The Heart Outcomes Prevention Evaluation (HOPE) study was designed to test the hypotheses that two preventive intervention strategies, namely angiotensin-converting enzyme (ACE) inhibition or vitamin E, would improve morbidity and mortality in patients at high risk of cardiovascular events compared with placebo. Patients were included in the study who were considered to be at high risk of future fatal or non-fatal cardiovascular events, by virtue of their age (>55 years), existing or previous cardiovascular disease, or diabetes. Diabetics had at least one other risk factor, either known vascular disease or other factors such as cigarette smoking, high cholesterol or hypertension. Ramipril or placebo was added to concomitant medication, which included, in a substantial proportion of patients, antihypertensive drugs (excluding ACE-I), lipid-lowering agents or aspirin. The HOPE study design and protocols have been previously described in detail (see, for example, The Heart Outcomes Prevention Evaluation Study Investigators NE J Med, 2000; 342:154-60 and […] Angioten Aldost Sys 2000; 1:18-20). Briefly, the study population consisted over 9,451 patients at high risk of CVD (3,654 DM). […] Patients were followed for a mean of 4.5 years. The primary study outcome was the composite of non-fatal MI, stroke or cardiovascular death. For samples from the HOPE Study, haptoglobin phenotyping was performed from 10 ul of plasma by polyacrylamide gel electrophoresis according to established methods (Hochberg I et al Atherosclerosis 2002; 161:441-446). A signature banding pattern is obtained from individuals who are homozygous for the 1 allele (Hp 1-1), homozygous for the 2 allele (Hp 2-2) or who are heterozygous at the haptoglobin locus (Hp 2-1). We have established 100% concordance between the haptoglobin phenotype as determined from plasma and the haptoglobin genotype as determined from genomic DNA by the polymerase chain reaction (Koch W, et al Clin Chem 2002; 277:13635-40). An unambiguous haptoglobin phenotype was obtained on greater than 99.6% of all samples assayed. Haptoglobin phenotyping was performed with no knowledge of the patients clinical or treatment status. All analyses of the HOPE Study data were carried out using SAS 6.02. Baseline characteristics of patients according to haptoglobin were compared by t tests or .chi^2 tests as appropriate. […] Patient characteristics of HOPE samples undergoing haptoglobin phenotyping: Haptoglobin phenotype was obtained on 3176 patients (1078 diabetics) from the original HOPE cohort for whom plasma was originally archived. These patients represented a randomly selected consecutive series of patients from the entire HOPE cohort.

[2] = value for 1 mg; cited from earlier work
[3] = CVD outcomes and Vitamin C supplementation (data not shown); format: in vivo, human; conditions: unselected samples or Diabetic patients
macrophages = test: Cholesterol efflux from macrophage by serum from treated diabetic mice; conditions: for effect on cholesterol efflux activity: Hp 2-2 diabetic mice
[4] = tested on: patients at high risk of cardiovascular events; conditions: HOPE study as published; daily 400 IU for 4.5 years; not stratified by haptoglobin; cited from earlier work
[5] = DM patients with the other haptoglobin phenotypes (Hp 1-1 and Hp 2-1)
[6] = all patients, Hp 1-1, supplementation vs placebo
[7] = all patients, Hp 2-1, supplementation vs placebo
[8] = all patients, Hp 2-2, supplementation vs placebo
[9] = entire sample, regardless of haptoglobin type
[10] = serum from diabetic Hp 1-1 mice treated orally 28 days (vitamin E 1 mg/kg/day; GPx mimetic 2 mg/kg/day)
[11] = serum from diabetic Hp 2-2 mice treated orally 28 days (vitamin E 1 mg/kg/day; GPx mimetic 2 mg/kg/day)
[12] = DM patients only, Hp 2-2, listed as vitamin E

With CCOC(=O)[C@H](CCc1ccccc1)N[C@@H](C)C(=O)N1[C@H](C(=O)O)C[C@@H]2CCC[C@@H]21 [Ramipril, ramipril] the “Relative Risk Ratio, Primary (non-fatal MI, stroke or cardiovascular death) (95% CI)” value ([1]; DM patients only, Hp 1-1) was 0.78(0.35-1.75), the “Relative Risk Ratio, Primary (non-fatal MI, stroke or cardiovascular death) (95% CI)” value ([1]; DM patients only, Hp 2-1) was 0.97 and the “Relative Risk Ratio, Primary (non-fatal MI, stroke or cardiovascular death) (95% CI)” value ([1]; DM patients only, Hp 2-2) was 0.57. For the same molecule, the “Relative Risk Ratio, Primary (non-fatal MI, stroke or cardiovascular death) (95% CI)” value ([1]; DM patients only, Hp 2-2, listed as ramipril) was 0.57, the “benefit for any of the primary CV outcomes” value (shortened to “benefit for any”) [1, 5] was “no benefit” and the “Relative Risk Ratio, Primary (non-fatal MI, stroke or cardiovascular death) (95% CI)” value [1, 6] was 0.74(0.47-1.17). The “Relative Risk Ratio, Primary (non-fatal MI, stroke or cardiovascular death) (95% CI)” value [1, 7] was 0.81 (0.62-1.07), the “Relative Risk Ratio, Primary (non-fatal MI, stroke or cardiovascular death) (95% CI)” value [1, 8] was 0.76 and the “composite endpoint (non-fatal MI, stroke or cardiovascular death)” value ([1]; diabetic individuals in the HOPE study having a Hp 2-2 phenotype) was “statistically significant reduction”. For the same molecule, the “benefit for any” value [1, 9] was “no significant benefit” and the “benefit of supplementation” value [1] was “no significant benefit”.

In the case of CC(=O)Oc1c(C)c(C)c2c(c1C)CCC(C)(CCCC(C)CCCC(C)CCCC(C)C)O2 (racemic) [all-rac-α-tocopherol acetate], the specific activity [2] is given as 1.00 IU per milligram.

With O=C1O[C@H]([C@@H](O)CO)C(O)=C1O [Vitamin C] the “correlation between CVD outcomes and supplementation” value [3] was “no correlation”.

For CC(=O)Oc1c(C)c(C)c2c(c1C)CC[C@@](C)(CCC[C@H](C)CCC[C@H](C)CCCC(C)C)O2 [RRR-.alpha-tocopherol acetate], the specific activity [2] is listed as 1.36 IU per milligram.

In the case of Cc1c(C)c2c(c(C)c1O)CC[C@@](C)(CCC[C@H](C)CCC[C@H](C)CCCC(C)C)O2 [RRR-alpha-tocopherol], the specific activity [2] is given as 1.49 IU per milligram.

For CC1(C)CN[Se]c2ccccc21 [GPx mimetic], the “effect on cholesterol efflux activity” value (macrophages) was “increased”, the “Tritiated cholesterol efflux from macrophages” value (shortened to “Tritiated cholesterol efflux”) (macrophages; [10]) was 14.6 +/− 0.4 % per hour and the “Tritiated cholesterol efflux” value (macrophages; [11]) was 14.0 +/− 0.5 % per hour.

In the case of CC(=O)Oc1c(C)c(C)c2c(c1C)CC[C@@](C)(CCC[C@H](C)CCC[C@H](C)CCCC(C)C)O2 [Vitamin E], the “effect on cholesterol efflux activity” value (macrophages) was “increased”, the “Tritiated cholesterol efflux” value (macrophages; [10]) was 16.1 +/− 0.5 % per hour and the “Tritiated cholesterol efflux” value (macrophages; [11]) was 15.3 +/− 0.7 % per hour. The “clinical benefit on cardiovascular (CV) outcomes” value [4] was “failed to demonstrate any clinical benefit”, the “Relative Risk Ratio, CV death (95% CI)” value ([1]; DM patients only, Hp 1-1) was 0.64 and the “Relative Risk Ratio, MI (95% CI)” value ([1]; DM patients only, Hp 1-1) was 0.83. The “Relative Risk Ratio, Primary (non-fatal MI, stroke or cardiovascular death) (95% CI)” value ([1]; DM patients only, Hp 1-1) was 0.84, the “Relative Risk Ratio, Stroke (95% CI)” value ([1]; DM patients only, Hp 1-1) was 2.24 and the “Relative Risk Ratio, CV death (95% CI)” value ([1]; DM patients only, Hp 2-1) was 1.0(0.53-1.93). The “Relative Risk Ratio, MI (95% CI)” value ([1]; DM patients only, Hp 2-1) was 0.99, the “Relative Risk Ratio, Primary (non-fatal MI, stroke or cardiovascular death) (95% CI)” value ([1]; DM patients only, Hp 2-1) was 1.08 and the “Relative Risk Ratio, Stroke (95% CI)” value ([1]; DM patients only, Hp 2-1) was 0.99(0.45-2.18). For the same molecule, the “Relative Risk Ratio, CV death (95% CI)” value ([1]; DM patients only, Hp 2-2) was 0.45 (0.23-0.90) *, the “Relative Risk Ratio, MI (95% CI)” value ([1]; DM patients only, Hp 2-2) was 0.57 and the “Relative Risk Ratio, Primary (non-fatal MI, stroke or cardiovascular death) (95% CI)” value ([1]; DM patients only, Hp 2-2) was 0.70(0.45-1.10). For the same molecule, the “Relative Risk Ratio, Stroke (95% CI)” value ([1]; DM patients only, Hp 2-2) was 1.15, the “Relative Risk Ratio, CV death (95% CI)” value [1, 12] was 0.45 and the “Relative Risk Ratio, MI (95% CI)” value [1, 12] was 0.57. The “benefit for any” value [1, 5] was “no significant benefit”, the “Relative Risk Ratio, CV death (95% CI)” value ([1]; all patients, Hp 1-1) was 1.10 and the “Relative Risk Ratio, MI (95% CI)” value ([1]; all patients, Hp 1-1) was 0.79. The “Relative Risk Ratio, Stroke (95% CI)” value ([1]; all patients, Hp 1-1) was 1.50, the “Relative Risk Ratio, Primary (non-fatal MI, stroke or cardiovascular death) (95% CI)” value [1, 6] was 0.97(0.63-1.50) and the “Relative Risk Ratio, CV death (95% CI)” value ([1]; all patients, Hp 2-1) was 1.07(0.69-1.64). The “Relative Risk Ratio, MI (95% CI)” value ([1]; all patients, Hp 2-1) was 1.02(0.75-1.38), the “Relative Risk Ratio, Stroke (95% CI)” value ([1]; all patients, Hp 2-1) was 0.92(0.53-1.60) and the “Relative Risk Ratio, Primary (non-fatal MI, stroke or cardiovascular death) (95% CI)” value [1, 7] was 0.96(0.74-1.25). For the same molecule, the “Relative Risk Ratio, CV death (95% CI)” value ([1]; all patients, Hp 2-2) was 0.75, the “Relative Risk Ratio, MI (95% CI)” value ([1]; all patients, Hp 2-2) was 0.94(0.68-1.30) and the “Relative Risk Ratio, Stroke (95% CI)” value ([1]; all patients, Hp 2-2) was 0.85. The “Relative Risk Ratio, Primary (non-fatal MI, stroke or cardiovascular death) (95% CI)” value [1, 8] was 0.92, the “benefit for any” value [1, 9] was “no significant benefit” and the “benefit of supplementation” value [1] was “no significant benefit”.

In the case of Cc1c(C)c2c(c(C)c1O)CCC(C)(CCCC(C)CCCC(C)CCCC(C)C)O2 (racemic) [all-rac-.alpha-tocopherol], the specific activity [2] is listed as 1.10 IU per milligram.
